Data taken from patent US6291247A, “Methods of screening for factors that disrupt neurotrophin conformation and reduce neurotrophin biological activity” (priority 1996, dated 2001).

Assays:
NGF = molecular target: T1, NGF (Mus musculus, UniProt P01139); test: NGF protomer crosslinking with BS3 (NGF conformation), metal ions; assay type: biochemical; conditions: for NGF Protomer Conformation (active/inactive): 100 μM
T1 construct: homodimer
Procedure: For crosslinking NGF […], 0.4 mM BS^3 was added to the mixture and incubated for 30 minutes at 25° C. […] For CD studies, NGF (50 μg/ml) was dissolved in 50 mM Tris-HCl buffer and spectra recorded using a computer controlled Jasco J-600 spectropolarimeter. Samples were acquired in the absence or presence of Zn^2+ (100 μM) at 22° C. in a 2 mm quartz cell averaged over eight scans. Modification of His residues by DEPC was carried out as previously described, where the molar excess of DEPC added and the extent of reaction was determined by evaluating the loss of binding activity of the modified product.

PC12 cells [1] = test: Toxicity to PC12 cells; assay type: cell-based, rat; conditions: 100 μM
Procedure: (§1) Effects of divalent ions on NGF mediated survival and toxicity was evaluated using a colorimetric assay for the lysosomal enzyme acid phosphatase to determine cell number (Connolly, D. T., Knight, M. B., Harakas, N. K, Wittwer, A. J. & Feder, J. Determination of the number of endothelial cells in culture using an acid phosphatase assay. Anal. Biochem. 152, 136-140 (1986); Ueda, Y., Walsh, E., Nakanishi H. & Yoshida, K. A. colorometric assay method for the evaluation of neurotrophic activity in vitro. Neurosci. Lett. 165, 203-207 (1994)). […] To evaluate toxicity, the cells were seeded and maintained without NGF in RPMI with 10% heat inactivated donor horse serum and 5% fetal calf serum in the presence of additives. Loss in viable cell number was determined and expressed as a percent of control. NGF rescues PC12 cells from cell death in serum-free medium(Greene, L. A. Nerve growth factor prevents the death and stimulates neuronal differentiation of clonal PC12 pheochromocytoma cells in serum-free medium. J. Cell Biol. 78, 747-755 (1978)). NGF-dependent survival was assessed by harvesting PC12 cells in balanced salt solution followed with washing by 4 cycles of suspension and centrifugation in serum-free RPMI prior to seeding in 96 well plates. After incubation with additives, medium was removed from the wells and cells washed once with 200 μl PBS. Buffer containing 0.1M sodium acetate pH 5.5, 0.1% Triton X-100 and 10 mM p-nitrophenyl phosphate (Sigma 104 phosphatase substrate) was added to each well (100 μl). Plates were incubated at 37° C. for 3 hours. The reaction was stopped by the addition of 10 μl/well of 1N sodium hydroxide and the color development measured at 405 nm using a microplate reader. The relationship between cell number and enzyme activity was linear over the range 1000 to 15,000 cells.
(§2) To explore the ability of other transition metals to influence the biological activities of NGF, a series of cations known to mimic in certain respects the binding of zinc to proteins were tested. […] For this reason these ions were not tested in NGF- dependant growth phenomena. […] As these studies appeared to indicate potentially complex results upon metal ions binding to NGF, a receptor crosslinking system where specific receptor types could be identified was utilized.

p75^NTR /TrkA = test: Receptor crosslinking of 125I-NGF with transition metal ions (receptor selectivity); assay type: binding
Procedure: as §2

PC12 cells [2] = test: NGF-dependent survival of PC12 cells; assay type: cell-based, rat; conditions: for Antagonism of NGF-dependent survival: high (1 nM) or low (50 pM) NGF; for Survival @ 50 pM NGF / Survival @ 1 nM NGF: rat, pc12 cells, 100 µM
Procedure: as §1, §2

p75^NTR and TrkA [3] = molecular target: T2, p75^NTR and TrkA (Mus musculus, UniProt P01139); test: Binding of 125I-NGF to PC12 cells (p75NTR + TrkA); set-up: species or system rat; conditions: for Total Binding to PC12 cells: 100 μM, 125I-NGF, 120 min
T2 construct: these cells express both NGF receptor types; endogenous in cells; host or cells: PC12 rat pheochromocytoma cells
Procedure: (§3) PC12 cells were grown in RPMI with 10% heat inactivated donor horse serum and 5% fetal calf serum. […] The tubes were incubated for 2 hr at 4° C. and 100 μl aliquots (providing triplicate data points for each sample) were transferred to 400 μl microcentrifuges containing 200 μl of 10% glycerol in HKR. Tubes were centrifuged for 2 minutes at 5,000 rpm, the tip containing the cell pellet cut off and radioactivity bound to the cells was determined.

p75^NTR and TrkA [4] = test system: T3, p75^NTR and TrkA; test: Binding of 125I-NGF to PC12 cells (p75NTR + TrkA); set-up: species or system rat
T3 construct: these cells express both NGF receptor types; endogenous in cells; host or cells: PC12 rat pheochromocytoma cells
Procedure: as §3

T2 sequence (P01139 122-239): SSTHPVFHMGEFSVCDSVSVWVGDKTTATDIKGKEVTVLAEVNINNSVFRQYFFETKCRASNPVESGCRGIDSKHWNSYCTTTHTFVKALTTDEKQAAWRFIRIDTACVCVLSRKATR
p75^NTR /TrkA, sequence (P01139 122-239): as above
p75^NTR /TrkA, sequence (P07174 30-425 partner): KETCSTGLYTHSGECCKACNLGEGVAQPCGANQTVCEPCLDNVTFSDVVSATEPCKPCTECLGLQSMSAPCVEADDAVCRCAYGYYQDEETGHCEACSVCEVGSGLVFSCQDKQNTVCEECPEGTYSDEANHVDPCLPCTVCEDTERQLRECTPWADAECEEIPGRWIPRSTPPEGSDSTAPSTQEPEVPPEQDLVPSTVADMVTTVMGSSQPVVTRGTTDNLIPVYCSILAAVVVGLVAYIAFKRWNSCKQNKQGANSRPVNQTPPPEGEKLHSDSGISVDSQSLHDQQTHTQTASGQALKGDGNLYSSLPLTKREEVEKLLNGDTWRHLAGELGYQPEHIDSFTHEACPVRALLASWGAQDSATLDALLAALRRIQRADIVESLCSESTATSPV
p75^NTR /TrkA, sequence (P35739 33-799 partner): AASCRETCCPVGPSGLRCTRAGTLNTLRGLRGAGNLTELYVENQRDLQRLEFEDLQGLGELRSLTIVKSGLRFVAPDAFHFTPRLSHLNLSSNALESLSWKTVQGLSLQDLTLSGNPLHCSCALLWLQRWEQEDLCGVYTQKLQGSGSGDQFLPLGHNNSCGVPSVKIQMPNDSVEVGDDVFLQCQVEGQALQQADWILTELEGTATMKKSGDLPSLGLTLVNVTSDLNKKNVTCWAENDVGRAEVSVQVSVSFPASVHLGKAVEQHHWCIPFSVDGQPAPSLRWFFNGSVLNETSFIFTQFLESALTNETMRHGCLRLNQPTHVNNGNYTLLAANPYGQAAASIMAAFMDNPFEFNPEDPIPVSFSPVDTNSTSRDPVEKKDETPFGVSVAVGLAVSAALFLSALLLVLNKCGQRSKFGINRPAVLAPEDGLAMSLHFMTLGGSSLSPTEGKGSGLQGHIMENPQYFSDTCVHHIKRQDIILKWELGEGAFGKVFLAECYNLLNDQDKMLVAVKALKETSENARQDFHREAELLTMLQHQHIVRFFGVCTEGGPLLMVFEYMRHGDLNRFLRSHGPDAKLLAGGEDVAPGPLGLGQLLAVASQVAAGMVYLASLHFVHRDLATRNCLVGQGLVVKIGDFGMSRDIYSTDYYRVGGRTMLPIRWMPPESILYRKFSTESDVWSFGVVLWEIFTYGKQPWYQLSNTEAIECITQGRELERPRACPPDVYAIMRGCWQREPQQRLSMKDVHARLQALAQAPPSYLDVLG
T1 sequence (P01139 122-239): as the sequence (P01139 122-239) above
T3 sequence (P01139 122-239): as above

SMILES | NGF Protomer Conformation (active/inactive) (NGF) | Toxicity (PC12 cell viability) (PC12 cells [1]) [% control] | Blocking of NGF binding to TrkA and p75NTR in receptor crosslinking (p75^NTR /TrkA) | Antagonism of NGF-dependent survival (PC12 cells [2]) | Survival @ 50 pM NGF (PC12 cells [2]) [% control] | Survival @ 1 nM NGF (PC12 cells [2]) [% control] | Total Binding to PC12 cells (p75^NTR and TrkA [3]) [% control] | Prevention of 125I-NGF binding to PC12 cells (p75^NTR and TrkA [4]) | Protomer crosslinking efficiency of NGF modified with DEPC (NGF; no Zn2+) | Receptor binding activity of NGF modified with DEPC (p75^NTR and TrkA [3])
[Pt+2] [Pt^2+] | active | 93 ± 6 | blocked binding to both receptors | ability to antagonize the NGF-dependant survival | 74 ± 21 | 92 ± 35 | 68 ± 11 | – | – | –
[Cu+2] [Cu^2+] | active | 74 ± 10 | blocked binding to both receptors | ability to antagonize the NGF-dependant survival | -2 ± 19 | -6 ± 8 | -16 ± 7 | ability to prevent binding | – | –
CCOC(=O)OC(=O)OCC [DEPC, diethyl-pyrocarbonate, reference compound] | – | – | – | – | – | – | – | – | reduction in protomer crosslinking efficiency | loss in receptor binding activity
[Mn+2] [Mn^2+] | inactive | 82 ± 4 | did not have a significant effect | – | 91 ± 5 | 59 ± 24 | 95 ± 24 | – | – | –
[Pd+2] [Pd^2+] | active | 75 ± 6 | blocked binding to both receptors | – | 82 ± 9 | 125 ± 48 | -5 ± 1 | ability to prevent binding | – | –
